# Measured values: US20070185020A1, “Methods and compositions for treating disorders of the extracellular matrix” (priority 2003, published 2007)
# Tests used:
# CDA1 [1] = experiment: CDA1 expression in kidney after angiotensin II infusion (immunohistochemistry); type: in vivo, rat
# Protocol: Ang II was continuously infused into rats by subcutaneously inserted minipump for 3 days or 14 days at both pressor (60 ng/min) and non-pressor doses (6 ng/min) in eight week old male Sprague Dawley (SD) rats (Cao et al Z; The angiotensin type 2 receptor is expressed in adult rat kidney and promotes cellular proliferation and apoptosis. Kidney int. 2000; 58:2437-2451).
# CDA1 staining was performed using a rabbit antihuman CDA1 serum (Chai et al, 2001) in paraffin embedded sections. In brief, following dewaxing, paraffin embedded sections were treated in a microwave oven at low power for 10 minutes in 10 mmol/L sodium citrate buffer (pH 6.0). Endogenous peroxidase was inactivated using 3% hydrogen peroxide (H2O2) in methanol for 20 minutes. The sections were blocked with protein block agent for 20 minutes. The sections were incubated with rabbit antihuman CDA1 serum for 2 hour at room temperature. Biotinylated goat anti-rabbit immunogloblulin (DAKO A/S) was used as a second antibody, followed by avidin biotin horseradish peroxidase complex (ABC Elite kit, Victor Laboratories, Burlingame, Calif.). Detection was accomplished by reaction with 3,3′-diaminobenzidine tetrahydrochloride (DAB, Sigma Chemical Co., St Louis, Mo.) (Cao Z et al. The angiotensin type 2 receptor is expressed in adult rat kidney and promotes cellular proliferation and apoptosis. Kidney Int. 2000; 58:2437-2451.
# CDA1 [2] = experiment: CDA1 expression and fibrosis in the remnant kidney following subtotal nephrectomy (STNx); type: in vivo, rat; conditions: preliminary data
# Protocol: Subtotal nephrectomy (STNx) were performed by right nephrectomy, followed by infarction of approximately two-thirds of the left kidney with selective ligation of all but one extrarenal branch of the left renal artery (CIA40). Anaesthesia was achieved by intraperitoneal injection of pentobarbitone sodium (60 mg/kg). Sham operated rats were used as controls. After operation, the animals were sacrificed at 1, 2, 4, 8 and 12 week and tissue collected for assessment of CDA1 expression and fibrotic growth factors as well as matrix proteins. CDA1 staining was performed using a rabbit antihuman CDA1 serum (Chai et al, 2001) in paraffin embedded sections. In brief, following dewaxing, paraffin embedded sections were treated in a microwave oven at low power for 10 minutes in 10 mmol/L sodium citrate buffer (pH 6.0). Endogenous peroxidase was inactivated using 3% hydrogen peroxide (H2O2) in methanol for 20 minutes. The sections were blocked with protein block agent for 20 minutes. The sections were incubated with rabbit antihuman CDA1 serum for 2 hour at room temperature. Biotinylated goat anti-rabbit immunogloblulin (DAKO A/S) was used as a second antibody, followed by avidin biotin horseradish peroxidase complex (ABC Elite kit, Victor Laboratories, Burlingame, Calif.). […]
# CDA1 [3] = conditions: in vitro; reported by other workers; cited from earlier work
compound,measurement,setting,value
CCCCC(=O)N(Cc1ccc(-c2ccccc2-c2nnn[nH]2)cc1)[C@H](C(=O)O)C(C)C [valsartan],Effect on increased CDA1 expression following Ang II infusion,"CDA1 [1]; treatment with AT1 receptor antagonist, data not shown",prevented
same,Effect on cell injury in remnant kidney,CDA1 [2],less cell injury
same,Effect on CDA1 expression in remnant kidney,CDA1 [2]; FIG. 3B,attenuation of CDA1 expression
TGF β1: growth factor; CDA1 described as a TGF β1 target gene,CDA1 expression,CDA1 [3],increased
"angiotensin II (DRVYIHPF; Angiotensin-2; UniProt P01015 25-32, looked up) [Ang II, peptide hormone infused into rats by minipump to stimulate CDA1 expression]",CDA1 expression after angiotensin II infusion,"CDA1 [1]; immunohistochemical staining, proximal tubules, subcutaneous minipump infusion in Sprague Dawley rats",increased CDA1 expression
